# Read-outs that look alike come from different tables or passages of the source.
# Legend:
# rEhAPSK = rEhAPSK (Entamoeba histolytica, UniProt C4LUW9); assay: 96-well plate-based in vitro APSK activity assay (coupling assay, NADH decrease); format: biochemical; conditions: for Inhibition of rEhAPSK activity: 10 μM compound, 1% DMSO
# Method: (§1) A coupling assay to measure APSK activity was performed as described except a 96-well plate was used. Briefly, each well contained 100 μL reaction mixture, which consisted of 90 μL coupling solution and 10 μL of either compound solution (see below) or 10% DMSO. […] The coupling solution was 100 mM Tris/HCl (pH 8.0), 1 mM MgCl2, 1 mM KCl, 5 mM Mg2ATP, 1 mM NADH, 1 mM PEP, 1 U NP1, 3.5 U PK, 5.0 U LDH, and APSK (≤3 μL). […] As controls, in place of purified APSK solution (rEhAPSK or rHsAPSK), 3 μL of a blank [50 mM Tris/HCl buffer (pH 8.0)], a solvent (elution buffer), a mock (rEhSF2), or denatured APSK suspensions obtained by heat-treatment, were added to the coupling solution. The activity of each sample was calculated after removing the baseline value of the blank control.
# (§2) For the inhibition assay, 2 μL of each stock solution, which were distributed in a 96-well plate, were transferred to a new plate to make a replicate. After adding 18 μL deionized water to each well and mixing, 10 μL of each diluted solution (100 μM compound solution) was again transferred into a new 96-well plate to make a replicate. Then 90 μL of the coupling solution prepared above was dispensed into each well containing the previously added 10 μL of 100 μM compound solution. As a solvent control, 10% DMSO solution (vol/vol-deionized water) was used in place of compound solution. The final concentrations of each compound and DMSO in a well were 10 μM and 1% (vol/vol), respectively. The assays were performed independently three times, and data are shown as the mean with SD.
# One millimolar stock solutions used were either thawed in a replicate (96-well plate) prepared in [18] […] Subsequently, 3.4 μL of the 1 mM and each diluted stock solution were dispensed into wells of a 96-well culture plate, containing 30.6 μL deionized water and mixed well by pipetting. Ten microliters of all resulting solutions were then dispensed into wells of a 96-well plate to make triplicates and then used as described for the above inhibition assay. 10% DMSO solution was used as an inhibitor-free control. Note that the final DMSO concentration in any well was 1% (vol/vol).
# (§3) In all assays, prepared mixtures in a plate were mixed on a vibrating table equipped with either an EnVision or ARVO plate reader (PerkinElmer) before starting the reaction.
# [1] = target: T1, rHsAPSK (recombinant APSK domain of HsPAPSS1) (Homo sapiens, UniProt O43252); assay: as above; format: biochemical; conditions: 10 μM compound, 1% DMSO
# T1 construct: APSK domains of HsPAPSS1 (Ala^25—Pro^227) and -2 (Ser^15—Pro^217); His tag (pCold-I vector); made in house; host or cells: E. coli BL21(DE3)
# T1 sequence (O43252 25-227): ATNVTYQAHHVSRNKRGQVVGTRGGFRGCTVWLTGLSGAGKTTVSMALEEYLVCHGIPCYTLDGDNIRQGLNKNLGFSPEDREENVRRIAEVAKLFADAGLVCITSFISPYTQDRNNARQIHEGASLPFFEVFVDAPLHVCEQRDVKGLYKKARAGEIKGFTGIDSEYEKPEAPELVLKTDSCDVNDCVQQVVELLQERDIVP
# Method: as §1, §2, §3
# [2] = system: E. histolytica trophozoite; assay: E. histolytica trophozoite proliferation assay (flow cytometry); format: cell-based; conditions: Entamoeba histolytica, read-out: Trophozoite proliferation IC50
# Method: (§4) E. histolytica trophozoite proliferation and E. invadens cyst formation assays were performed essentially as described in [18] except that in addition to 0–72 and 48–72 h cyst formation assays, 0–96 and 0–120 h, and 48–96 and 48–120 h assays were also performed.
# [3] = system: E. invadens cyst formation; assay: E. invadens cyst formation (encystation) assay (flow cytometry); format: cell-based, Entamoeba invadens
# Method: as §4
# [4] = WST-1-based cytotoxicity assay; conditions: human
# Method: (§5) Human foreskin fibroblast (HFF) cells (purchased from ATCC) were routinely maintained in DMEM supplemented with 10% fetal bovine serum, 100 units/ml penicillin, […] and 1% GlutaMAX™-I (Thermo Fisher Scientific, Waltham, MA). A WST-1-based cytotoxicity assay was performed as previously described. In detail, HFF cells were plated at 1.0×10^4 cells/100 μL medium in each well of a 96-well culture plate, and incubated overnight at 37°C in a 5% CO2 atmosphere to allow cells to adhere to the wells. […] Numbers of viable cells were then assessed using the Premix WST-1 Cell Proliferation Assay System (Takara). […] DMSO was added at 1% as a negative control whereas ionomycin was added at 30 μM as a positive control. As a blank, the above culture medium was used in place of the solutions added.
# [5] = system: sulfolipids synthesized in E. histolytica trophozoites; assay: Metabolic labeling by [35S]-labeled sulfate, sulfolipid synthesis; format: cell-based, Entamoeba histolytica; conditions: 6 h treatment; A-D-11, A-H-11 6.25-100 μM, E-H-05 0.5-8 μM
# Method: Metabolic labeling of E. histolytica trophozoites by [^35S]-labeled sulfate was performed essentially as described previously with slight modification. […] Each 10 mM stock solution (in DMSO) of the three commercially sourced compounds was serially diluted by 2-fold decrements with DMSO. The resulting diluted solutions were then added to 0.75 ml cell suspension in BI-S-33 medium at 1/100 (vol/vol). […] Note that DMSO was used as a solvent control at 1%, which was the DMSO concentration in all samples analyzed. [^35S]-labeled sulfate (45 μCi) was added 4 h after the start of treatments and labeled cells were harvested at 6 h. […] Each spot on the TLC plates was quantified using a Fuji imaging analyzer and Multi Gauge 2.2 software (FLA-7000; Fujifilm, Japan). The total cell protein was estimated using a Pierce BCA protein assay kit (Thermo Scientific, Rockford, IL, USA).
# [6] = system: E. histolytica trophozoites; assay: Morphological analysis by phase contrast microscopy; format: cell-based, Entamoeba histolytica; conditions: 6 h treatment
# Excerpt: Cell morphology was then observed by phase contrast microscopy using a Primovert microscope (Carl Zeiss, Germany) with a COMS camera (E3CMOS12000KPA, ToupTek, China). […] Cell images were captured using ToupView software (ToupTek).
# [7] = system: E. invadens cyst formation; set-up: method as in PMID 30087858; conditions: 10 μM; ref [18]; cited from earlier work
# [8] = system: Human foreskin fibroblast (HFF) cells; assay: WST-1-based cytotoxicity assay
# Method: as §5
# [9] = read-out: APSK activity IC50, rEhAPSK, average ± SD, more than three independent experiments
# [10] = rEhAPSK, average ± SD, more than three independent experiments, read-out: APSK activity IC50
# rEhAPSK, sequence (C4LUW9 entry or part of it): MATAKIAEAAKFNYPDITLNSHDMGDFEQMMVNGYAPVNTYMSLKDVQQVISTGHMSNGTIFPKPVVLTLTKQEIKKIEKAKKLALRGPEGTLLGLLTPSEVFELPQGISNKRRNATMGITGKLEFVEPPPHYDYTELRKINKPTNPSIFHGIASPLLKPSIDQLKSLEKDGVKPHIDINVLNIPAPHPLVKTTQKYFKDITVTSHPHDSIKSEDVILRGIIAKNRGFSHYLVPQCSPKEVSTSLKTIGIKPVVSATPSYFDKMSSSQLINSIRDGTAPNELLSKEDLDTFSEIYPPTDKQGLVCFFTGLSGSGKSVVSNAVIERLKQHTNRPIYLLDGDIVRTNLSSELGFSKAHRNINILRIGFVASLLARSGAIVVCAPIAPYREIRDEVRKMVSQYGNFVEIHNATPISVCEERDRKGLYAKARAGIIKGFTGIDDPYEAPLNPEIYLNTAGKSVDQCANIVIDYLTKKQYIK
SMILES,Inhibition of rEhAPSK activity (rEhAPSK),IC50 (rEhAPSK; [10]) [µM],"Number of viable HFF cells relative to 1% DMSO control (set as 100%) ([8]; 10 μM, 48 h)",also measured
COc1ccc(C2=NN(C3CCCCCC3)C(=O)C2(C)C)cc1OCCCCOc1ccc(-c2nnn[nH]2)cc1 [A-C-05],reproducibly inhibited rEhAPSK activity,–,–,IC50 (rEhAPSK): 4.73 ± 1.16 µM; IC50 (rEhAPSK; [9]): < 10 µM
"O=C(COc1cccc(F)c1)Nc1nc(-c2ccccn2)cs1 [A-D-11, 2-(3-fluorophenoxy)-N-[4-(2-pyridyl)thiazol-2-yl]-acetamide]",reproducibly inhibited rEhAPSK activity,–,–,"IC50 (rEhAPSK): 6.3 ± 1.53 µM; IC50 (rEhAPSK; [9]): < 10 µM; Inhibition of rHsAPSK activity [1]: none showed any inhibitory activity against HsAPSK; IC50 [2]: 7.5 ± 2.29 µM; IC50 ([3]; Entamoeba invadens, read-out: Cyst formation IC50): 2.27 ± 0.252 µM; Number of cysts formed at 72 h ([3]; compound added at 48 h post-induction (48–72 h)): neither A-D-11 nor A-H-11 affected the number of cysts formed at 72 h; IC50 at 48 h [4]: > 100 µM; Amount of sulfolipids synthesized [5]: dose-dependently reduced the amount of sulfolipids synthesized; Concentration range that produced trophozoite morphology similar to DMSO control [6]: 6.25–100 μM; Effect on cyst formation [7]: negative effects"
COc1cccc(-n2nnnc2S(=O)(=O)Cc2ccccc2)c1 [A-F-04],reproducibly inhibited rEhAPSK activity,> 10,–,–
Cc1cc(C)cc(COc2ccc3c(C)c(CCC(=O)O)c(=O)oc3c2C)c1 [A-F-07],reproducibly inhibited rEhAPSK activity,7.67 ± 1.25,did not affect numbers of viable cells,–
Cc1cc(C2=NOC(c3cc(Cl)c(F)c(Cl)c3)(C(F)(F)F)C2)ccc1C(=O)NCc1ccc2c(c1)C(C)(C)OB2O (stereo not shown) [B-B-05],reproducibly inhibited rEhAPSK activity,–,–,IC50 (rEhAPSK): 5.73 ± 1.36 µM; IC50 (rEhAPSK; [9]): < 10 µM; Number of viable HFF cells relative to 1% DMSO control (set as 100%) ([8]; 10 µM): did not affect numbers of viable cells
COc1ccc(C2=NN(C3CCCCCC3)C(=O)C3CC=CCC23)cc1OCCCCOc1ccc(-c2nnn[nH]2)cc1 (stereo not shown) [B-C-02],reproducibly inhibited rEhAPSK activity,–,–,Number of viable HFF cells relative to 1% DMSO control (set as 100%) ([8]; 10 µM): ~20 − ~60
"Cc1ccc(C(=O)Nc2ccc(S(=O)(=O)O)c3cc(S(=O)(=O)O)cc(S(=O)(=O)O)c23)cc1NC(=O)c1cccc(NC(=O)Nc2cccc(C(=O)Nc3cc(C(=O)Nc4ccc(S(=O)(=O)O)c5cc(S(=O)(=O)O)cc(S(=O)(=O)O)c45)ccc3C)c2)c1 [B-D-03, suramin, reference compound]",reproducibly inhibited rEhAPSK activity,0.52 ± 0.102,–,Number of viable HFF cells relative to 1% DMSO control (set as 100%) ([8]; 10 µM): did not affect numbers of viable cells
"C[C@H](CCC(=O)O)C[C@H](C)C[C@H](C)C(=O)/C=C(\O)[C@H](C)C[C@H](C)C/C=C/[C@@H](C)[C@@H](O)[C@@H](C)[C@@H](O)C[C@@H]1CC[C@@](C)([C@H]2CC[C@@](C)([C@@H](C)O)O2)O1 [ionomycin, reference compound]",–,–,–,"HFF cell viability ([8]; 30 μM, positive control): almost completely abolished cell viability"

# Now from value to compound, other results behind:
Inhibition of rEhAPSK activity (rEhAPSK),IC50 (rEhAPSK; [10]) [µM],SMILES,"Number of viable HFF cells relative to 1% DMSO control (set as 100%) ([8]; 10 μM, 48 h)",also measured
reproducibly inhibited rEhAPSK activity,6.57 ± 1.25,COc1ccc(Cl)cc1NC(=O)CN(C)C(=O)c1cnn(-c2ccccc2)n1 [B-C-08],did not affect numbers of viable cells,–
reproducibly inhibited rEhAPSK activity,8.67 ± 2.62,Cn1c(=O)c2c(S(C)(=O)=O)snc2n(C)c1=O [C-C-06],–,–
reproducibly inhibited rEhAPSK activity,2.03 ± 0.205,N=C(N)Nc1ccc(-c2ccc(-c3ccc(NC(=N)N)cc3Cl)o2)c(Cl)c1 [C-F-03],did not affect numbers of viable cells,–
reproducibly inhibited rEhAPSK activity,> 10,"C[C@]1(COc2ccc(N3CCC(Oc4ccc(OC(F)(F)F)cc4)CC3)cc2)Cn2cc([N+](=O)[O-])nc2O1 [C-F-06, delamanid, reference compound]",did not affect numbers of viable cells,–
reproducibly inhibited rEhAPSK activity,0.47 ± 0.0499,N=C(N)Nc1ccc(-c2ccc(-c3ccc(NC(=N)N)c(Cl)c3)o2)cc1Cl [D-E-10],did not affect numbers of viable cells,–
reproducibly inhibited rEhAPSK activity,> 10,O=C(Nc1nnc(S)s1)c1cc(Br)ccc1Cl [E-G-10],did not affect numbers of viable cells,–
